IC50 data for 38 molecules are collected here from US20260132127A1, “NOVEL SPIRO COMPOUND” (MITSUBISHI TANABE PHARMA CORPORATION, priority 2021, published 2026).

pIC50: −log10 of the molar value.

For the test, the target named is T1, human TRH-DE (Homo sapiens, UniProt Q9UKU6).
T1 construct: expressed in transfected cells; host or cells: Expi 293 cells (transient expression), membrane fraction
T1 sequence (Q9UKU6 1-1069): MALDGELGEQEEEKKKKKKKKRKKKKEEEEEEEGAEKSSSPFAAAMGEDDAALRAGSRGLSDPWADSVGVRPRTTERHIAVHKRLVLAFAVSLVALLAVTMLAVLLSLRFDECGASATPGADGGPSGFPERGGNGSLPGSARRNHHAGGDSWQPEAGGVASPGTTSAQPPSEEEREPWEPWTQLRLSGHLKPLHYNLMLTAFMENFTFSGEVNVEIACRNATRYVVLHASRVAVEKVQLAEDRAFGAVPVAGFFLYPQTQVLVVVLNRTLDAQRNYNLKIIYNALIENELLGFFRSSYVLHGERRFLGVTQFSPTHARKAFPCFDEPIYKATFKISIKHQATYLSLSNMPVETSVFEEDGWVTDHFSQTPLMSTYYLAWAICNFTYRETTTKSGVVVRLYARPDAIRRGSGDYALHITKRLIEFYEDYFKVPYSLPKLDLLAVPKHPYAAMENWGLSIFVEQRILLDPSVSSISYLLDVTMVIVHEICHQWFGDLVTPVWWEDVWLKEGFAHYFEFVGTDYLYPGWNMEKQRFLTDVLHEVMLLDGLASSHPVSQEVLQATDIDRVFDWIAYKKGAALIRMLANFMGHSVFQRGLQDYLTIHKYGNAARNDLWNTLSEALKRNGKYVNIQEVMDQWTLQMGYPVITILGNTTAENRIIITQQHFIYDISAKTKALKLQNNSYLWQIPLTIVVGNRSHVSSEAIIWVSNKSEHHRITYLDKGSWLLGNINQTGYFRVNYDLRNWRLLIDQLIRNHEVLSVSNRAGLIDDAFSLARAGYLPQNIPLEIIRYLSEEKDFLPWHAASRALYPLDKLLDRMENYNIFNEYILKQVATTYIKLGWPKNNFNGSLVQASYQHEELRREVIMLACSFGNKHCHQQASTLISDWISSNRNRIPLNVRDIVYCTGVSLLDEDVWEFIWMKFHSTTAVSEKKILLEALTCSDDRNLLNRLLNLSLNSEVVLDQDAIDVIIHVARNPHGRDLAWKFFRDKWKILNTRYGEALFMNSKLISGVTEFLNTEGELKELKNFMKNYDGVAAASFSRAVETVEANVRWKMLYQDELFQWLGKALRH
Put plainly: TRH-DE inhibition test (RapidFire MS measurement of product Cyclo (His-Pro)). The class given is biochemical. Conditions: membrane fraction of Expi 293 cells expressing human TRH-DE; 10 μM TRH substrate; room temperature, 2 hours; 16-point concentration test. How it is done: The compounds described in “1. […] The enzyme inhibitory activity of each of the compounds was evaluated by measuring the amount of the product Cyclo (His-Pro) of the enzyme reaction using a RapidFire RF 365 HTMS system (manufactured by Agilent Technologies, Inc.) connected to a triple quadrupole mass spectrometer (API 4000, manufactured by SCIEX). A membrane fraction prepared from Expi 293 cells transiently expressing human TRH-DE was used as an enzyme. The membrane fraction was suspended in 4 μg/ml of a reaction buffer (50 mM sodium phosphate (pH 7.4), 25 mM NaCl, 0.01% Triton […], and 200 μM bacitracin) and mixed with the test compound at each concentration. 10 μM […]), which was a substrate, was added, and the mixture was reacted at room temperature for 2 hours. The reaction was stopped in the same amount of a solution of acetonitrile:methanol (1:1) containing 1 μM of the stable isotope Cyclo ([…]) as an internal standard, and the supernatant was collected after centrifugation. In the RapidFire RF 365 HTMS system, a portion of the supernatant was aspirated, loaded onto a Graphic Carbon column (manufactured by Agilent Technologies, Inc.) with a buffer A (water, 0.09% formic acid, 0.01% trifluoroacetic acid) and washed with ultrapure water. Next, washing was performed with acetonitrile. The contents in the column were eluted with a buffer B (80% acetonitrile, 0.09% formic acid, 0.01% trifluoroacetic acid) and injected into a mass spectrometer for analysis. […] The ESI voltage was set to 5,500 V and the temperature was set to 650° C. For the calculation of the inhibition rate, a Ratio value corrected by dividing the product amount by the internal standard amount was used. The inhibition rate (%) was calculated by % Inhibition={1-(Ratio value of sample-Ratio value of blank)/(Ratio value of control-Ratio value of blank)}×100. The IC50 value was calculated from the concentration reactivity test at 16 points.
Usually pIC50 stands for −log10 of the IC50, conventionally taken in molar units. For `CC1COc2nc(C3CC3)sc2C(=O)N1C1CC2(C1)CN(S(=O)(=O)c1ccccc1F)C2` (racemic) [Example 179], the pIC50 is 8.15.
Molecule `COc1ccc2c(n1)CCC(C)N(C1CC3(C1)CN(S(=O)(=O)c1ccccc1F)C3)C2=O` (racemic) [Example 249, 6-[2-(2-fluorophenyl)sulfonyl-2-azaspiro[3.3]heptan-6-yl]-2-methoxy-7-methyl-8,9-dihydro-7H-pyrido[3,2-c]azepin-5-one] had a negative-log IC50 (pIC50) of 6.95.
In the case of `CC1CSc2nc(C(F)(F)F)ccc2C(=O)N1C1CC2(C1)CN(S(=O)(=O)c1ccccc1F)C2` (racemic) [Example 259, 4-[2-(2-fluorophenyl)sulfonyl-2-azaspiro[3.3]heptan-6-yl]-3-methyl-8-(trifluoromethyl)-2,3-dihydropyrido[3,2-f][1,4]thiazepin-5-one], the pIC50 was 6.82.
`CC1c2ccccc2C(=O)N1C1CC2(C1)CN(S(=O)(=O)c1ccccc1)C2` (racemic) [Example 267] showed a pIC50 of 6.18. This pIC50 is 0.64 log units lower than that of the molecule before.
On to `CCC1c2ccccc2C(=O)N1C1CC2(C1)CN(S(=O)(=O)c1ccccc1)C2` (racemic) [Example 268], for which the pIC50 was 6.97.
Then `CC1c2cc(F)ccc2C(=O)N1C1CC2(C1)CN(S(=O)(=O)c1ccccc1F)C2` (racemic) [Example 269], with 6.87; and `CC1c2ccc(F)cc2C(=O)N1C1CC2(C1)CN(S(=O)(=O)c1ccccc1F)C2` (racemic) [Example 270], with 6.72; and `CCC1c2ccccc2C(=O)N1C1CC2(C1)CN(S(=O)(=O)c1ccccc1F)C2` (racemic) [Example 271], with 7.62.
On to `Cc1ccc(F)c(S(=O)(=O)N2CC3(CC(N4C(=O)c5ccccc5C4C)C3)C2)c1` (racemic) [Example 272], for which the pIC50 was 7.00.
With `CCC1c2ccccc2C(=O)N1C1CC2(C1)CN(S(=O)(=O)c1cc(C)ccc1F)C2` (racemic) [Example 273], the pIC50 is 7.20.
For `CCC1c2ccccc2C(=O)N1C1CC2(C1)CN(S(=O)(=O)c1cc(OC)ccc1F)C2` (racemic) [Example 274], the negative-log IC50 (pIC50) is 6.82. This pIC50 lies 0.38 log units lower than the previous one.
Take `CC1(O)c2cc(F)ccc2C(=O)N1C1CC2(C1)CN(S(=O)(=O)c1ccccc1F)C2` (racemic) [Example 276]: the pIC50 was 7.13.
Molecule `CC1(O)c2ccc(F)cc2C(=O)N1C1CC2(C1)CN(S(=O)(=O)c1ccccc1F)C2` (racemic) [Example 277] gave a negative-log IC50 (pIC50) of 6.99.
Consider `CC1(O)c2cccnc2C(=O)N1C1CC2(C1)CN(S(=O)(=O)c1ccccc1F)C2` (racemic) [Example 278], for which the pIC50 is 6.84.
Regarding `CC1(O)c2cc(F)cnc2C(=O)N1C1CC2(C1)CN(S(=O)(=O)c1ccccc1F)C2` (racemic) [Example 279], the pIC50 is 6.95.
Regarding `Cc1cnc2c(c1)C(C)(O)N(C1CC3(C1)CN(S(=O)(=O)c1ccccc1F)C3)C2=O` (racemic) [Example 280], the pIC50 is 7.05. This pIC50 and that of the molecule before are within 0.2 log units of each other.
Regarding `COc1ccc2c(n1)C(=O)N(C1CC3(C1)CN(S(=O)(=O)c1ccccc1F)C3)C2(C)O` (racemic) [Example 281], the pIC50 is 6.92.
With `CC1(O)c2cnccc2C(=O)N1C1CC2(C1)CN(S(=O)(=O)c1ccccc1F)C2` (racemic) [Example 282], the pIC50 was 6.91.
With `CC1(O)c2ccccc2C(=O)N1C1CC2(C1)CN(S(=O)(=O)c1ccccc1)C2` (racemic) [Example 284] the figure was 6.27; with `CCC1(O)c2ccccc2C(=O)N1C1CC2(C1)CN(S(=O)(=O)c1ccccc1)C2` (racemic) [Example 285], 6.02; with `CCC1(O)c2ccccc2C(=O)N1C1CC2(C1)CN(S(=O)(=O)c1ccccc1F)C2` (racemic) [Example 286], 6.67.
On to `Cc1ccc(F)c(S(=O)(=O)N2CC3(CC(N4C(=O)c5ccccc5C4(C)O)C3)C2)c1` (racemic) [Example 287], for which the pIC50 is 7.05.
Then `CCC1(O)c2ccccc2C(=O)N1C1CC2(C1)CN(S(=O)(=O)c1cc(C)ccc1F)C2` (racemic) [Example 288], with 6.47.
In the case of `CCC1(O)c2ccccc2C(=O)N1C1CC2(C1)CN(S(=O)(=O)c1cc(OC)ccc1F)C2` (racemic) [Example 289], the pIC50 was 6.47.
The molecule `CC1c2cccnc2C(=O)N1C1CC2(C1)CN(S(=O)(=O)c1ccccc1F)C2` (racemic) [Example 291] showed a negative logarithm of the IC50 (pIC50) of 6.67.
Consider `CC1c2cc(F)cnc2C(=O)N1C1CC2(C1)CN(S(=O)(=O)c1ccccc1F)C2` (racemic) [Example 292], for which the pIC50 is 6.81.
In turn, `Cc1cnc2c(c1)C(C)N(C1CC3(C1)CN(S(=O)(=O)c1ccccc1F)C3)C2=O` (racemic) [Example 293] showed a pIC50 of 6.92.
Consider `COc1ccc2c(n1)C(=O)N(C1CC3(C1)CN(S(=O)(=O)c1ccccc1F)C3)C2C` (racemic) [Example 294], for which the pIC50 is 6.93.
With `CC1c2cnccc2C(=O)N1C1CC2(C1)CN(S(=O)(=O)c1ccccc1F)C2` (racemic) [Example 295] the figure was 6.45; with `C[C@@H]1CC[C@H](C)N(C2CC3(C2)CN(S(=O)(=O)c2ccccc2F)C3)C(=O)C1` (racemic) [Example 436, (4R*,7S*)-1-[2-(2-fluorophenyl)sulfonyl-2-azaspiro[3.3]heptan-6-yl]-4,7-dimethylazepan-2-one], 7.48; with `C[C@@H]1CC[C@@H](C)N(C2CC3(C2)CN(S(=O)(=O)c2ccccc2F)C3)C(=O)C1` (racemic) [Example 437, (4R*,7R*)-1-[2-(2-fluorophenyl)sulfonyl-2-azaspiro[3.3]heptan-6-yl]-4,7-dimethylazepan-2-one], 6.53.
`CC1CCC(=O)N(C2CC3(C2)CN(S(=O)(=O)c2ccccc2F)C3)C(C)C1` (racemic) [Example 438] gave a pIC50 of 6.90.
Regarding `CC1CCC(=O)N(C2CC3(C2)CN(S(=O)(=O)c2ccccc2F)C3)C(C)C1` (racemic) [Example 439], the negative logarithm of the IC50 (pIC50) is 6.91.
For `CC1CCCC(=O)N1C1CC2(C1)CN(S(=O)(=O)c1ccccc1F)C2` (racemic) [Example 440, 1-[2-(2-fluorophenyl)sulfonyl-2-azaspiro[3.3]heptan-6-yl]-6-methylpiperidin-2-one], the pIC50 is 6.70.
Consider `C[C@@H]1COc2nc(N3C[C@H]4C[C@H]4C3)ncc2C(=O)N1C1CC2(C1)CN(S(=O)(=O)c1ccccc1F)C2` (relative stereo) [Example 168, (7R)-2-[(1S*,5R*)-3-azabicyclo[3.1.0]hexan-3-yl]-6-[2-(2-fluorophenyl)sulfonyl]-2-azaspiro[3.3]heptan-6-yl]-7-methyl-7,8-dihydropyrimido[5,4-f][1,4]oxazepin-5-one], for which the negative logarithm of the IC50 (pIC50) was 8.70.
Molecule `CC1COc2cccnc2C(=O)N1C1CC2(C1)CN(S(=O)(=O)c1ccccc1F)C2` (single isomer, unassigned) [Example 348] showed a pIC50 of 8.30.
Molecule `CC1COc2cccnc2C(=O)N1C1CC2(C1)CN(S(=O)(=O)c1ccccc1F)C2` (single isomer, unassigned) [Example 349] showed a pIC50 of 6.29.
Then `CC1CCc2nc(C(F)(F)F)sc2C(=O)N1C1CC2(C1)CN(S(=O)(=O)c1ccccc1F)C2` (single isomer, unassigned) [Example 352], with 7.96.
